What was measured:
Format in all cases: physicochemical
[1] = Colour of solution by visible spectrophotometry on storage (Example 3); settings: 5% w/v solution in water
Experimental: Colour of solution by UV spectrophotometry.
(§1) Each test material was stored between 2-8*C prior to placing on stability. Each material was sub-divided into 900 mg aliquots, transferred to brown opaque HDPE plastic bottles and flushed with Argon prior to sealing. Sufficient samples were provided for each time point as well as spares for each storage condition. The samples were placed in appropriate incubators previously commissioned at storage conditions 25° C./60% RH, 40° C./75% RH and 60° C.
Colour by Visible Spectrophotometry
A 5% w/v solution of test material was prepared in water and the absorbance measured at 420 nm in a 1 cm silica cell using a Unicam UV4 Visible/UV spectrophotometer.

[2] = Water content by Karl Fisher analysis on storage (Example 3)
Experimental: Water content (% w/w) by Karl Fisher analysis
as §1
Water Content by Karl Fisher Analysis
Water content was determined in duplicate on an aliquot of equilibrated material (approximately 100 mg) using a Tritrino 720 KFS Titrator.

[3] = Visual appearance on storage (Example 3)
Experimental: as §1
The samples were stored for analysis according to the following table: […]

[4] = Stability indicating HPLC assay and related substances on storage (Example 3)
Experimental: Assay (% w/w) and related substances determination
as §1
Testing Procedures Test for Identity Content and Impurities
Testing was performed in duplicate (2×25 mg) in accordance with a stability indicating HPLC assay method. The assay results were reported as M6G as is, M6G as the anhydrous, solvent free material and the anhydrous solvent free material corrected for the salt form using the relevant conversion factor.

## CN1CCC23c4c5ccc(O)c4OC2C(OC2OC(C(=O)O)C(O)C(O)C2O)C=CC3C1C5.O=P(O)(O)O (stereo not shown) [Morphine-6-glucuronide phosphate]
[1]; 1 month, 25° C./60% RH
  Colour: 0.053 Abs@420 nm
[1]; 1 month, 40° C./75% RH
  Colour: 0.308 Abs@420 nm
[1]; 1 month, 60° C.
  Colour: 0.787 Abs@420 nm
[1]; 3 months, 25° C./60% RH
  Colour: 0.098 Abs@420 nm
[1]; 3 months, 40° C./75% RH
  Colour: 0.878 Abs@420 nm
[1]; Initial
  Colour: 0.034 Abs@420 nm
[2]; 1 month, 25° C./60% RH
  Moisture: 3.91 % w/w
[2]; 1 month, 40° C./75% RH
  Moisture: 9.28 % w/w
[2]; 1 month, 60° C.
  Moisture: 5.12 % w/w
[2]; 3 months, 25° C./60% RH
  Moisture: 5.06 % w/w
[2]; 3 months, 40° C./75% RH
  Moisture: 11.88 % w/w
[2]; 40° C./75% RH
  increase in moisture content compared to initial: around 8%
[2]; Initial
  Moisture: 3.12 % w/w
[3]; 1 month, 25° C./60% RH
  Appearance: White crystalline powder
[3]; 1 month, 40° C./75% RH
  Appearance: Slightly yellow crystalline powder
[3]; 1 month, 60° C.
  Appearance: Pale yellow crystalline powder
[3]; 3 months, 25° C./60% RH
  Appearance: White crystalline powder
[3]; 3 months, 25° C./60% RH, listed as phosphate
  Appearance: white crystalline solids
[3]; 3 months, 40° C./75% RH
  Appearance: Slightly yellow crystalline powder
[3]; Initial
  Appearance: White crystalline powder
[4]; 1 month, 25° C./60% RH
  Known Related Substances HN33177: 0.78%
  Known Related Substances HN67003: 0.04%
  Known Related Substances HN75083: 0.03%
  M6G Assay, Anhydrous basis: 91.37 % w/w
  M6G Assay, As is basis: 84.57 % w/w
  M6G Assay, Corrected for the salt form: 110.76 % w/w
  Total Known: 0.85%
  Total Related Substances: 1.41%
  Total Unknown: 0.56%
[4]; 1 month, 40° C./75% RH
  Known Related Substances HN33177: 0.70%
  Known Related Substances HN67003: 0.53%
  Known Related Substances HN75083: 0.14%
  M6G Assay, Anhydrous basis: 92.00 % w/w
  M6G Assay, As is basis: 80.20 % w/w
  M6G Assay, Corrected for the salt form: 111.52 % w/w
  Total Known: 1.37%
  Total Related Substances: 3.44%
  Total Unknown: 2.07%
[4]; 1 month, 60° C.
  Known Related Substances HN33177: 0.70%
  Known Related Substances HN67003: 0.90%
  Known Related Substances HN75076: 0.03%
  Known Related Substances HN75083: 0.27%
  Known Related Substances Morphine: 0.18%
  M6G Assay, Anhydrous basis: 88.33 % w/w
  M6G Assay, As is basis: 80.69 % w/w
  M6G Assay, Corrected for the salt form: 107.08 % w/w
  Total Known: 2.08%
  Total Related Substances: 5.43%
  Total Unknown: 3.35%
[4]; 3 month assay data
  stability based on % w/w assay: most stable
[4]; 3 months, 25° C./60% RH
  Known Related Substances HN33177: 0.78%
  Known Related Substances HN67003: 0.16%
  Known Related Substances HN75076: 0.03%
  Known Related Substances HN75083: 0.19%
  Known Related Substances Morphine: 0.07%
  M6G Assay, Anhydrous basis: 91.16 % w/w
  M6G Assay, As is basis: 84.25 % w/w
  M6G Assay, Corrected for the salt form: 110.50 % w/w
  Total Known: 1.23%
  Total Related Substances: 2.31%
  Total Unknown: 1.08%
[4]; 3 months, 40° C./75% RH
  Known Related Substances HN33177: 0.59%
  Known Related Substances HN67003: 0.75%
  Known Related Substances HN75076: 0.12%
  Known Related Substances HN75083: 0.06%
  Known Related Substances Morphine: 0.32%
  M6G Assay, Anhydrous basis: 92.40 % w/w
  M6G Assay, As is basis: 79.02 % w/w
  M6G Assay, Corrected for the salt form: 112.01 % w/w
  Total Known: 1.84%
  Total Related Substances: 5.99%
  Total Unknown: 4.15%
[4]; Initial
  Known Related Substances HN33177: 0.75%
  Known Related Substances HN67003: 0.04%
  Known Related Substances HN75083: 0.07%
  M6G Assay, Anhydrous basis: 89.21 % w/w
  M6G Assay, As is basis: 83.90 % w/w
  M6G Assay, Corrected for the salt form: 108.12 % w/w
  Total Known: 0.86%
  Total Related Substances: 0.86%
  Total Unknown: 0.00%
[4]; all storage conditions, material a phosphate/base mixture
  assay values throughout the study: around 110%
